# Laboratory results published in publication PMC5218480 (PLoS ONE, 2017).
# Tested on: MV-4-11 cells
# Test: Gene expression microarray analysis (Affymetrix PrimeView) and GSEA
# Type: cell-based, human
# Parameters: RFU PODN (11730768_x_at) / Fold change /veh PODN (11730768_x_at) / RFU LINC00158 (11744669_a_at) / Fold change /veh LINC00158 (11744669_a_at) / RFU DUSP10 (11751237_a_at) / Fold change /veh DUSP10 (11751237_a_at) / RFU ID3 (11757404_x_at) / Fold change /veh ID3 (11757404_x_at) / RFU PLEKHG5 (11737974_s_at) / Fold change /veh PLEKHG5 (11737974_s_at) / RFU LRRC4B (11730491_at) / Fold change /veh LRRC4B (11730491_at) / RFU GIMAP4 (11747438_a_at) / Fold change /veh GIMAP4 (11747438_a_at) / RFU KRT8 (11758183_x_at) / Fold change /veh KRT8 (11758183_x_at) / RFU CNN1 (11734310_a_at) / Fold change /veh CNN1 (11734310_a_at) / RFU VPS37D (11726825_at) / Fold change /veh VPS37D (11726825_at) / RFU C10orf10 (11716522_x_at) / Fold change /veh C10orf10 (11716522_x_at) / RFU KIR2DL2 /// KIR2DL4 /// KIR2DL5A /// KIR2DL5B /// KIR2DS1 /// KIR2DS2 /// KIR2DS3 /// KIR2DS4 /// KIR3DL3 /// KIR3DL3 /// KIR3DS1 (11738374_at) / Fold change /veh KIR2DL2 /// KIR2DL4 /// KIR2DL5A /// KIR2DL5B /// KIR2DS1 /// KIR2DS2 /// KIR2DS3 /// KIR2DS4 /// KIR3DL3 /// KIR3DL3 /// KIR3DS1 (11738374_at) / RFU C1QL1 (11718748_at) / Fold change /veh C1QL1 (11718748_at) / RFU TMPRSS4 (11747572_a_at) / Fold change /veh TMPRSS4 (11747572_a_at) / RFU HAMP (11756126_x_at) / Fold change /veh HAMP (11756126_x_at) / RFU RNFT2 (11725882_a_at) / Fold change /veh RNFT2 (11725882_a_at) / RFU NR4A2 (11747474_a_at) / Fold change /veh NR4A2 (11747474_a_at) / RFU ABCC12 (11746883_a_at) / Fold change /veh ABCC12 (11746883_a_at) / RFU TMEM136 (11760407_x_at) / Fold change /veh TMEM136 (11760407_x_at) / RFU CLDN22 /// WWC2 (11732394_at) / Fold change /veh CLDN22 /// WWC2 (11732394_at) / RFU HLA-DPB1 (11760878_x_at) / Fold change /veh HLA-DPB1 (11760878_x_at) / RFU SPINT1 (11716480_a_at) / Fold change /veh SPINT1 (11716480_a_at) / RFU GAP43 (11754022_s_at) / Fold change /veh GAP43 (11754022_s_at) / RFU A4GNT (11735810_at) / Fold change /veh A4GNT (11735810_at) / RFU PRB3 (11715151_x_at) / Fold change /veh PRB3 (11715151_x_at) / RFU TUBB4B (11761932_at) / Fold change /veh TUBB4B (11761932_at) / RFU CAPN14 (11732068_a_at) / Fold change /veh CAPN14 (11732068_a_at) / RFU TMCC2 (11721928_a_at) / Fold change /veh TMCC2 (11721928_a_at) / RFU IRGQ (11745062_a_at) / Fold change /veh IRGQ (11745062_a_at) / RFU FAM174B (11720279_a_at) / Fold change /veh FAM174B (11720279_a_at) / RFU TMPRSS4 (11748680_a_at) / Fold change /veh TMPRSS4 (11748680_a_at) / RFU FAM212B (11763350_a_at) / Fold change /veh FAM212B (11763350_a_at) / RFU PLEKHG5 (11743358_a_at) / Fold change /veh PLEKHG5 (11743358_a_at) / RFU ZSCAN30 (11745921_a_at) / Fold change /veh ZSCAN30 (11745921_a_at) / RFU CMKLR1 (11741424_a_at) / Fold change /veh CMKLR1 (11741424_a_at) / RFU LOC101060620 /// MAPK8IP1 (11723275_at) / Fold change /veh LOC101060620 /// MAPK8IP1 (11723275_at) / RFU SPTSSB (11747773_x_at) / Fold change /veh SPTSSB (11747773_x_at) / RFU PRSS12 (11739890_at) / Fold change /veh PRSS12 (11739890_at) / RFU BIN1 (11741810_x_at) / Fold change /veh BIN1 (11741810_x_at) / RFU WNT11 (11732464_a_at) / Fold change /veh WNT11 (11732464_a_at) / RFU C10orf10 (11716521_a_at) / Fold change /veh C10orf10 (11716521_a_at) / RFU C5orf56 (11738089_at) / Fold change /veh C5orf56 (11738089_at) / RFU CYB561 (11721691_x_at) / Fold change /veh CYB561 (11721691_x_at) / RFU ANKRD19P (11752326_a_at) / Fold change /veh ANKRD19P (11752326_a_at) / RFU OR2T12 /// OR2T33 /// OR2T8 (11738714_s_at) / Fold change /veh OR2T12 /// OR2T33 /// OR2T8 (11738714_s_at) / RFU VCAN (11748164_a_at) / Fold change /veh VCAN (11748164_a_at) / RFU JSRP1 (11732532_at) / Fold change /veh JSRP1 (11732532_at) / RFU KRTAP10-11 (11738290_x_at) / Fold change /veh KRTAP10-11 (11738290_x_at) / RFU MYO3A (11730013_a_at) / Fold change /veh MYO3A (11730013_a_at) / RFU EBF3 (11725865_a_at) / Fold change /veh EBF3 (11725865_a_at) / RFU CAMK2N1 (11719241_x_at) / Fold change /veh CAMK2N1 (11719241_x_at) / RFU C5orf56 (11738088_a_at) / Fold change /veh C5orf56 (11738088_a_at) / RFU OLFML3 (11715873_a_at) / Fold change /veh OLFML3 (11715873_a_at) / RFU LOC100653217 /// NTM (11731650_a_at) / Fold change /veh LOC100653217 /// NTM (11731650_a_at) / RFU MAPK11 (11762145_a_at) / Fold change /veh MAPK11 (11762145_a_at) / RFU FIZ1 (11724087_x_at) / Fold change /veh FIZ1 (11724087_x_at) / RFU OASL (11726364_x_at) / Fold change /veh OASL (11726364_x_at) / RFU SOX15 (11748057_x_at) / Fold change /veh SOX15 (11748057_x_at) / RFU CD79A (11719716_a_at) / Fold change /veh CD79A (11719716_a_at) / RFU HIST1H1D (11736915_at) / Fold change /veh HIST1H1D (11736915_at) / RFU CASKIN2 (11723855_a_at) / Fold change /veh CASKIN2 (11723855_a_at) / RFU LOC730098 (11760151_x_at) / Fold change /veh LOC730098 (11760151_x_at) / RFU OR4N2 (11742367_at) / Fold change /veh OR4N2 (11742367_at) / RFU PRRT2 (11749266_a_at) / Fold change /veh PRRT2 (11749266_a_at) / RFU SNX32 (11753110_a_at) / Fold change /veh SNX32 (11753110_a_at) / RFU CDHR5 (11726645_a_at) / Fold change /veh CDHR5 (11726645_a_at) / RFU RCAN1 (11760418_a_at) / Fold change /veh RCAN1 (11760418_a_at) / RFU FAM167A (11723789_a_at) / Fold change /veh FAM167A (11723789_a_at) / RFU FAM26E (11764081_at) / Fold change /veh FAM26E (11764081_at) / RFU ISYNA1 (11749810_s_at) / Fold change /veh ISYNA1 (11749810_s_at) / RFU ACY1 (11761880_at) / Fold change /veh ACY1 (11761880_at) / RFU 11764098_at / Fold change /veh 11764098_at / RFU SAMD14 (11745864_x_at) / Fold change /veh SAMD14 (11745864_x_at) / RFU NPB (11741838_a_at) / Fold change /veh NPB (11741838_a_at) / RFU TMPRSS6 (11731388_a_at) / Fold change /veh TMPRSS6 (11731388_a_at) / RFU KRTAP10-2 (11738614_at) / Fold change /veh KRTAP10-2 (11738614_at) / RFU ARHGAP8 /// PRR5-ARHGAP8 (11727945_x_at) / Fold change /veh ARHGAP8 /// PRR5-ARHGAP8 (11727945_x_at) / RFU KRTAP5-7 /// NADSYN1 (11734609_at) / Fold change /veh KRTAP5-7 /// NADSYN1 (11734609_at) / RFU RASL12 (11751679_a_at) / Fold change /veh RASL12 (11751679_a_at) / RFU CDKN2B (11736163_a_at) / Fold change /veh CDKN2B (11736163_a_at) / RFU PRF1 (11729649_at) / Fold change /veh PRF1 (11729649_at) / RFU, ZNF638 /// ZNF638-IT1 / Fold change vs veh, ZNF638 /// ZNF638-IT1 / RFU, PANK3 / Fold change vs veh, PANK3 / RFU, SH3YL1 / Fold change vs veh, SH3YL1 / RFU, ZEB2 / Fold change vs veh, ZEB2 / RFU, NRIP1 / Fold change vs veh, NRIP1 / RFU, PTTG1IP / Fold change vs veh, PTTG1IP / RFU, CAPN2 / Fold change vs veh, CAPN2 / RFU, MED14 / Fold change vs veh, MED14 / RFU, SNORA58 / Fold change vs veh, SNORA58 / RFU, C1orf63 / Fold change vs veh, C1orf63 / RFU, LRRFIP1 / Fold change vs veh, LRRFIP1 / RFU, NDUFAF7 / Fold change vs veh, NDUFAF7 / RFU, SLC12A2 / Fold change vs veh, SLC12A2 / RFU, IBTK / Fold change vs veh, IBTK / RFU, ESF1 / Fold change vs veh, ESF1 / Fold change vs veh, TMEM50B / RFU, TAOK1 / Fold change vs veh, TAOK1 / RFU, ACBD3 / Fold change vs veh, ACBD3 / RFU, TMA16 / Fold change vs veh, TMA16 / RFU, RWDD3 / Fold change vs veh, RWDD3 / RFU, BCAT1 / Fold change vs veh, BCAT1 / RFU, EDEM3 / Fold change vs veh, EDEM3 / RFU, TMEM33 / Fold change vs veh, TMEM33 / RFU, WDR75 / Fold change vs veh, WDR75 / RFU, AHCTF1 / Fold change vs veh, AHCTF1 / RFU, TFRC / Fold change vs veh, TFRC / RFU, ZDHHC17 / Fold change vs veh, ZDHHC17 / RFU, NOM1 / Fold change vs veh, NOM1 / RFU, ARL8B / Fold change vs veh, ARL8B / RFU, ZBTB11 / Fold change vs veh, ZBTB11 / RFU, TAMM41 / Fold change vs veh, TAMM41 / RFU, KIAA1704 /// LOC100996395 / Fold change vs veh, KIAA1704 /// LOC100996395 / RFU, ING1 / Fold change vs veh, ING1 / RFU, TRMT61B / Fold change vs veh, TRMT61B / RFU, FUBP3 / Fold change vs veh, FUBP3 / RFU, TP53 / Fold change vs veh, TP53 / RFU, TNKS2 / Fold change vs veh, TNKS2 / RFU, ZFP14 / Fold change vs veh, ZFP14 / RFU, ACTR2 / Fold change vs veh, ACTR2 / RFU, PPP3R1 / Fold change vs veh, PPP3R1 / RFU, PIK3R1 / Fold change vs veh, PIK3R1 / RFU, HNRNPA1 / Fold change vs veh, HNRNPA1 / RFU, RNF170 / Fold change vs veh, RNF170 / RFU, ZNF28 / Fold change vs veh, ZNF28 / RFU, RNGTT / Fold change vs veh, RNGTT / RFU, OGT / Fold change vs veh, OGT / RFU, BRD1 / Fold change vs veh, BRD1 / RFU, MARS / Fold change vs veh, MARS / RFU, ZNF655 / Fold change vs veh, ZNF655 / RFU, FAHD1 / Fold change vs veh, FAHD1 / RFU, BDP1 / Fold change vs veh, BDP1 / RFU, LRRCC1 / Fold change vs veh, LRRCC1 / RFU, ARID1A / Fold change vs veh, ARID1A / RFU, ZNF146 / Fold change vs veh, ZNF146 / RFU, ZNF330 / Fold change vs veh, ZNF330 / RFU, GPN3 / Fold change vs veh, GPN3 / RFU, C9orf123 / Fold change vs veh, C9orf123 / RFU, N4BP2L2 / Fold change vs veh, N4BP2L2 / RFU, ARFIP1 / Fold change vs veh, ARFIP1 / RFU, FAM179B / Fold change vs veh, FAM179B / RFU, BCL10 / Fold change vs veh, BCL10 / RFU, UHRF1BP1L / Fold change vs veh, UHRF1BP1L / RFU, BET1 / Fold change vs veh, BET1 / RFU, CNOT2 / Fold change vs veh, CNOT2 / RFU, ZNF268 / Fold change vs veh, ZNF268 / Fold change vs veh, ZNF507 / RFU, DGCR2 / Fold change vs veh, DGCR2 / RFU, WDSUB1 / Fold change vs veh, WDSUB1 / Fold change vs veh, HSP90B1 /// MIR3652 / RFU, ADSS / Fold change vs veh, ADSS / RFU, GK / Fold change vs veh, GK / RFU, ZNF148 / Fold change vs veh, ZNF148 / RFU, TAF9 / Fold change vs veh, TAF9 / RFU, SLC1A5 / Fold change vs veh, SLC1A5 / RFU, SLMO2 / Fold change vs veh, SLMO2 / RFU, ABCC4 / Fold change vs veh, ABCC4 / RFU, LOC101060439 /// RAP1B / Fold change vs veh, LOC101060439 /// RAP1B / RFU, RFX7 / Fold change vs veh, RFX7 / RFU, GTPBP10 / Fold change vs veh, GTPBP10 / RFU, CNEP1R1 / Fold change vs veh, CNEP1R1 / RFU, BIVM-ERCC5 /// ERCC5 / Fold change vs veh, BIVM-ERCC5 /// ERCC5 / RFU, ILF3 / Fold change vs veh, ILF3 / RFU 11762660_at / Fold change /veh 11762660_at / RFU VCAN (11757783_s_at) / Fold change /veh VCAN (11757783_s_at) / RFU DDX43 (11728927_at) / Fold change /veh DDX43 (11728927_at) / RFU KRT8 (11758188_x_at) / Fold change /veh KRT8 (11758188_x_at) / RFU NKD1 (11759106_at) / Fold change /veh NKD1 (11759106_at) / RFU SRD5A1 (11742802_a_at) / Fold change /veh SRD5A1 (11742802_a_at) / RFU TPSAB1 /// TPSB2 (11721975_s_at) / Fold change /veh TPSAB1 /// TPSB2 (11721975_s_at) / RFU GSTM3 (11746129_a_at) / Fold change /veh GSTM3 (11746129_a_at) / RFU IL23R (11737362_x_at) / Fold change /veh IL23R (11737362_x_at) / RFU TMEM51 (11727254_a_at) / Fold change /veh TMEM51 (11727254_a_at) / RFU PIWIL2 (11732686_x_at) / Fold change /veh PIWIL2 (11732686_x_at) / RFU ORM1 (11744905_x_at) / Fold change /veh ORM1 (11744905_x_at) / RFU CCDC152 (11743942_at) / Fold change /veh CCDC152 (11743942_at) / RFU ECM1 (11717891_a_at) / Fold change /veh ECM1 (11717891_a_at) / RFU IL23R (11748794_a_at) / Fold change /veh IL23R (11748794_a_at) / RFU TNFAIP8L3 (11732012_x_at) / Fold change /veh TNFAIP8L3 (11732012_x_at) / RFU MBOAT4 (11741988_at) / Fold change /veh MBOAT4 (11741988_at) / RFU 11764193_at / Fold change /veh 11764193_at / RFU TMEM53 (11763286_at) / Fold change /veh TMEM53 (11763286_at) / RFU MAGEB2 (11727129_at) / Fold change /veh MAGEB2 (11727129_at) / RFU TMEM200A (11744735_a_at) / Fold change /veh TMEM200A (11744735_a_at) / RFU CCDC152 (11751479_a_at) / Fold change /veh CCDC152 (11751479_a_at) / RFU FAM211A (11726209_a_at) / Fold change /veh FAM211A (11726209_a_at) / RFU RGS16 (11746705_a_at) / Fold change /veh RGS16 (11746705_a_at) / RFU VCAN (11755009_s_at) / Fold change /veh VCAN (11755009_s_at) / RFU RHOB (11743442_s_at) / Fold change /veh RHOB (11743442_s_at) / RFU RGS16 (11720943_a_at) / Fold change /veh RGS16 (11720943_a_at) / RFU RGS16 (11720944_at) / Fold change /veh RGS16 (11720944_at) / RFU, VPS4B / Fold change vs veh, VPS4B / RFU, CREB1 / Fold change vs veh, CREB1 / RFU, DNAJC13 / Fold change vs veh, DNAJC13 / RFU, GNAQ / Fold change vs veh, GNAQ / RFU, CDK5R1 / Fold change vs veh, CDK5R1 / RFU, ZRANB3 / Fold change vs veh, ZRANB3 / RFU, CUL4A / Fold change vs veh, CUL4A / RFU, CCNY / Fold change vs veh, CCNY / RFU, UFL1 / Fold change vs veh, UFL1 / RFU, COG3 / Fold change vs veh, COG3 / RFU, DIAPH2 / Fold change vs veh, DIAPH2 / RFU, SKA2 / Fold change vs veh, SKA2 / RFU, AFF3 / Fold change vs veh, AFF3 / RFU, LMF1 / Fold change vs veh, LMF1 / RFU, IPO11 / Fold change vs veh, IPO11 / RFU, DFFB / Fold change vs veh, DFFB / RFU, FOXP1 / Fold change vs veh, FOXP1 / RFU, CARD8 / Fold change vs veh, CARD8 / RFU, STRN3 / Fold change vs veh, STRN3 / RFU, ADK / Fold change vs veh, ADK / RFU, RASSF2 / Fold change vs veh, RASSF2 / RFU, WIPF1 / Fold change vs veh, WIPF1 / RFU, LARP1B / Fold change vs veh, LARP1B / RFU, RASA1 / Fold change vs veh, RASA1 / RFU, RB1 / Fold change vs veh, RB1 / RFU, PPFIA1 / Fold change vs veh, PPFIA1 / RFU, MAT2A / Fold change vs veh, MAT2A / RFU, CCT5 / Fold change vs veh, CCT5 / RFU, WDR92 / Fold change vs veh, WDR92 / RFU, CUX1 / Fold change vs veh, CUX1 / RFU, TTC7A / Fold change vs veh, TTC7A / RFU, TMEM135 / Fold change vs veh, TMEM135 / RFU, DEPTOR / Fold change vs veh, DEPTOR / RFU, CPM / Fold change vs veh, CPM / RFU, DNAJB6 / Fold change vs veh, DNAJB6 / RFU, CACNA2D3 / Fold change vs veh, CACNA2D3 / RFU, DTX4 / Fold change vs veh, DTX4 / RFU, TFCP2 / Fold change vs veh, TFCP2 / RFU, GMCL1 /// GMCL1P1 / Fold change vs veh, GMCL1 /// GMCL1P1 / RFU, AEBP2 / Fold change vs veh, AEBP2 / RFU, SNHG1 /// SNORD22 /// SNORD25 /// SNORD26 /// SNORD27 /// SNORD28 /// SNORD29 /// SNORD31 / Fold change vs veh, SNHG1 /// SNORD22 /// SNORD25 /// SNORD26 /// SNORD27 /// SNORD28 /// SNORD29 /// SNORD31 / Fold change (Aza/veh), C12orf56 (ProbeSet 11735607_a_at) / Fold change (ACY-1035/veh), C12orf56 (ProbeSet 11735607_a_at) / Fold change (Aza/veh), FGFR1OP (ProbeSet 11751329_s_at) / Fold change (ACY-1035/veh), FGFR1OP (ProbeSet 11751329_s_at) / Fold change (Aza/veh), VPS36 (ProbeSet 11739960_a_at) / Fold change (ACY-1035/veh), VPS36 (ProbeSet 11739960_a_at) / RFU SYPL1 (11715823_x_at) / Fold change /veh SYPL1 (11715823_x_at) / RFU IGFBP7 (11715501_s_at) / Fold change /veh IGFBP7 (11715501_s_at) / RFU REEP3 (11722064_at) / Fold change /veh REEP3 (11722064_at) / RFU IGLL1 (11728026_x_at) / Fold change /veh IGLL1 (11728026_x_at): dose or concentration left out as unconfirmed
# Conditions: ProbeSet 11743929_at; LIST B
compound,measurement,value
Nc1ccc(-c2cccs2)cc1NC(=O)c1ccc2c(c1)cc(C1CC1)n2CCN1CCOCC1 [ACY-1035],"Fold change vs veh, UHRF1BP1L",0.90
